Measured values reported in ChEMBL document CHEMBL5291721, “A preclinical secondary pharmacology resource illuminates target-adverse drug reaction associations of marketed drugs” (Nat Commun, 2023).

Assays:
[1] = target: Beta-3 adrenergic receptor (Homo sapiens, UniProt P13945)
B1 bradykinin receptor = target: T1, B1 bradykinin receptor (Homo sapiens, UniProt P46663)
T1 sequence (P46663 whole entry): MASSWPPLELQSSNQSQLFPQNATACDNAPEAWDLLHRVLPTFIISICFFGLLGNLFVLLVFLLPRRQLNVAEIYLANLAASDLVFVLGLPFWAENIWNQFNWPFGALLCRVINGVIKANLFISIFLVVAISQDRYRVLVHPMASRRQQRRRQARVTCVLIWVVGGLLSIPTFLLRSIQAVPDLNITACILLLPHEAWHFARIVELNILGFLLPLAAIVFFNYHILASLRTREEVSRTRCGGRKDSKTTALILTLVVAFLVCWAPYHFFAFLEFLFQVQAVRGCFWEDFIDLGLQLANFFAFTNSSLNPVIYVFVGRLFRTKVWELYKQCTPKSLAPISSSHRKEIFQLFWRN

[2] = target: T2, Corticotropin-releasing factor receptor 1 (Homo sapiens, UniProt P34998)
T2 sequence (P34998 whole entry): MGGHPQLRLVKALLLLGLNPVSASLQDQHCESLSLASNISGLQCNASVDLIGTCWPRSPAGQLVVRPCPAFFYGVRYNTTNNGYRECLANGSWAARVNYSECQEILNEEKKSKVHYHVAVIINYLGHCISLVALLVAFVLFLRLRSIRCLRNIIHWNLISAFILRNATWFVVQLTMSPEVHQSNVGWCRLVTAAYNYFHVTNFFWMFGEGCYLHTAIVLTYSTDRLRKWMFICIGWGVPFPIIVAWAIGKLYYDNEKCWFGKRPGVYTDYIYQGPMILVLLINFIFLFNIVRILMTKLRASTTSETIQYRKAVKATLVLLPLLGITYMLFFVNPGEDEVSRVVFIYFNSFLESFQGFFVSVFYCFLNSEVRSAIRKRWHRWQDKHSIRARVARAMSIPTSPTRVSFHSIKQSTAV

[3] = target: T3, Corticotropin-releasing factor receptor 2 (Homo sapiens, UniProt Q13324)
T3 sequence (Q13324 whole entry): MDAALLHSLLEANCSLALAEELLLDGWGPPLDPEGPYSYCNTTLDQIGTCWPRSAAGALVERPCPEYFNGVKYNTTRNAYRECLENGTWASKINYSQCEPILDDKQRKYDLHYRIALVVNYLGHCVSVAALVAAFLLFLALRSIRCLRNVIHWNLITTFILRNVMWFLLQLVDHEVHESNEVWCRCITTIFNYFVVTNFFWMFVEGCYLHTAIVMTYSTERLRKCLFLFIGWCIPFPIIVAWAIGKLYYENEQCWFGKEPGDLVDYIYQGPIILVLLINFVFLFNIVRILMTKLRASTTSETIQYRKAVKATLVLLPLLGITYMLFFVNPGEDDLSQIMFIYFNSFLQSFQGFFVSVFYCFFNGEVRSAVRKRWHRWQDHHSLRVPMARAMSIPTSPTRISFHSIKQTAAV

[4] = target: T4, Endothelin receptor type B (Homo sapiens, UniProt P24530)
T4 sequence (P24530 whole entry): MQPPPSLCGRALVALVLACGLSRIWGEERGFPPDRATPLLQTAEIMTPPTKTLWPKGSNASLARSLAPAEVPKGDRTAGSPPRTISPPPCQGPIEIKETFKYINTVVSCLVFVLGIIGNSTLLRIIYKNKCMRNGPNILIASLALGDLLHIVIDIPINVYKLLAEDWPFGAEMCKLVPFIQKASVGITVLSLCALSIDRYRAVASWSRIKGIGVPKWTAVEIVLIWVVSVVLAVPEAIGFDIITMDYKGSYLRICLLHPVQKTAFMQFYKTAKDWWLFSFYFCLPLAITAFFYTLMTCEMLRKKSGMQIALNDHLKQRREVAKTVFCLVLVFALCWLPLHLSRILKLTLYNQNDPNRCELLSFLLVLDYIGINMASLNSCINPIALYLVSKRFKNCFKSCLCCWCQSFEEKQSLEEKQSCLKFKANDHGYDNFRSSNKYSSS

Estrogen receptor beta = Estrogen receptor beta (Homo sapiens, UniProt Q92731)
Sequence of Estrogen receptor beta (Q92731 whole entry): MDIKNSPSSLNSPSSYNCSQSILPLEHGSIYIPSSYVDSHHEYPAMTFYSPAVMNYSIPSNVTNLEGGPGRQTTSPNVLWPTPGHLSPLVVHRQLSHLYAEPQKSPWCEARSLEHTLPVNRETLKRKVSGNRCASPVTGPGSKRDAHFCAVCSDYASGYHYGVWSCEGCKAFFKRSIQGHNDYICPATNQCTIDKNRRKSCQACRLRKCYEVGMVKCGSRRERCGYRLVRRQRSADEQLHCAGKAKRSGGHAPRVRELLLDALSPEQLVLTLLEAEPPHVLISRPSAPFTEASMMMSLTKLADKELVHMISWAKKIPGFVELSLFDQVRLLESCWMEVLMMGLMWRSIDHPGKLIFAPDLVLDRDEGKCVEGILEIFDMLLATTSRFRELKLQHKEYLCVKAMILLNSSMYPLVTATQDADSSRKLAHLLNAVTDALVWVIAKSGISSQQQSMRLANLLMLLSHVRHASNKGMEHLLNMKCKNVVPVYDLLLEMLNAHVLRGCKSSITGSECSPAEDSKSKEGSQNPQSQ

[5] = target: T5, 5-hydroxytryptamine receptor 1A (Homo sapiens, UniProt P08908)
T5 sequence (P08908 whole entry): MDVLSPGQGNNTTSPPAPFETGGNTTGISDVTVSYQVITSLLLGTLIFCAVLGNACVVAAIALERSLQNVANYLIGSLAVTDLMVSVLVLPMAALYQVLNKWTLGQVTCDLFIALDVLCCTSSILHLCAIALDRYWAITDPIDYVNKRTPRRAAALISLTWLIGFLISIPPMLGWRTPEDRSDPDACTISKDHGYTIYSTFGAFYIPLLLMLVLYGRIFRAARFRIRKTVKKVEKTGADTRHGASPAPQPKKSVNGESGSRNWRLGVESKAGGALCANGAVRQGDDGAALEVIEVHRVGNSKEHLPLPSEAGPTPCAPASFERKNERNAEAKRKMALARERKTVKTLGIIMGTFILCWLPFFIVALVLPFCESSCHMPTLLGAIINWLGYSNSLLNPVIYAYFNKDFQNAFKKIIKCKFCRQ

[6] = target: T6, Muscarinic acetylcholine receptor M2 (Homo sapiens, UniProt P08172)
T6 sequence (P08172 whole entry): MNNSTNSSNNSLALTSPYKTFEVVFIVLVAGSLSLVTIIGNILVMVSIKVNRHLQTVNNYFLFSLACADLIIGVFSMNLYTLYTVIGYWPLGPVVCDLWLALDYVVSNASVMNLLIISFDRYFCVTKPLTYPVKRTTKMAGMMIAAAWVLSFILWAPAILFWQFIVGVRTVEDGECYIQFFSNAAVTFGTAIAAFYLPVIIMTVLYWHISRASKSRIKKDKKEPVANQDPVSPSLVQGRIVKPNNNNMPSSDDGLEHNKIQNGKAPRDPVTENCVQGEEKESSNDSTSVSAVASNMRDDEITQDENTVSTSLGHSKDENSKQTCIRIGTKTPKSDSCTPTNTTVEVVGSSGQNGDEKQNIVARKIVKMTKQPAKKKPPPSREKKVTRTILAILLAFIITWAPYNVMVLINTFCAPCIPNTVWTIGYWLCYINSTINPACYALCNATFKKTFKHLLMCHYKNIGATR

D(1A) dopamine receptor = D(1A) dopamine receptor (Homo sapiens, UniProt P21728)
Sequence of D(1A) dopamine receptor (P21728 whole entry): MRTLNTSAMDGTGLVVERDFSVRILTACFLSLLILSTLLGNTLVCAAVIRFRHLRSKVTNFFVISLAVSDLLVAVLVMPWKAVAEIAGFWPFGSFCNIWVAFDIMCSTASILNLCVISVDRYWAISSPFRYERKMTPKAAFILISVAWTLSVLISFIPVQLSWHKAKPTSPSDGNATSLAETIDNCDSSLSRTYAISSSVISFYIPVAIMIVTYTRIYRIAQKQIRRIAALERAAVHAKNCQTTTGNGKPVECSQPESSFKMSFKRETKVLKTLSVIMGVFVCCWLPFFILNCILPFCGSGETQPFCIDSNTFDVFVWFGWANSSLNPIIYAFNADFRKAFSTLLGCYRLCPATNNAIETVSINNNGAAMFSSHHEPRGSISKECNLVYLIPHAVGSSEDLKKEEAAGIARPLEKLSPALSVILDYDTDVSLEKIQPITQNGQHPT
Note: assay procedure not described here.

Sequence of Beta-3 adrenergic receptor (P13945 whole entry): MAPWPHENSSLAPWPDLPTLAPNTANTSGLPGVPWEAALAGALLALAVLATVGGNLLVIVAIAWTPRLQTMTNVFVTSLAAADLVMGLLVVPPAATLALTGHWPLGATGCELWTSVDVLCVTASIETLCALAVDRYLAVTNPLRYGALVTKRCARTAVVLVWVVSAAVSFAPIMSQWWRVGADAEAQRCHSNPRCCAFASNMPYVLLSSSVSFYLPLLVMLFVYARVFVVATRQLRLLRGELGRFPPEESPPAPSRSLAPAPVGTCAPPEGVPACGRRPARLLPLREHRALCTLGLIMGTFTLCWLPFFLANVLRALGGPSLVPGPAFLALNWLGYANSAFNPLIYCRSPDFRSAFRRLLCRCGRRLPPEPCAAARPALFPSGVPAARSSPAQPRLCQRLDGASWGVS

SMILES	AC50 [1]	AC50 (B1 bradykinin receptor)	AC50 [2]	AC50 [3]	AC50 [4]	AC50 (Estrogen receptor beta)	AC50 [5]	AC50 [6]	AC50 (D(1A) dopamine receptor)
CCOC(=O)C1=C(C)NC(C)=C(C(=O)OC)C1c1cccc(Cl)c1Cl (centres undefined) [FELODIPINE]	10.4 µM	> 30 µM	> 30 µM	> 30 µM	> 30 µM	> 30 µM	> 10 µM	> 10 µM	> 10 µM
CN1C(=O)CN=C(c2ccccc2F)c2cc([N+](=O)[O-])ccc21 [FLUNITRAZEPAM]	> 30 µM	> 30 µM	> 30 µM	> 30 µM	> 30 µM	> 30 µM	> 10 µM	> 10 µM	> 10 µM
CN1C2CCCC1CC(NC(=O)c1nn(C)c3ccccc13)C2 (centres undefined) [GRANISETRON]	> 30 µM	> 30 µM	> 30 µM	> 30 µM	> 30 µM	> 30 µM	> 10 µM	> 10 µM	> 10 µM
COc1ccc2c3c1O[C@H]1C(=O)CC[C@H]4[C@@H](C2)N(C)CC[C@]314 [HYDROCODONE]	> 30 µM	> 30 µM	> 30 µM	> 30 µM	> 30 µM	> 30 µM	> 10 µM	> 10 µM	> 10 µM
CC1NCCOC1c1ccccc1 (centres undefined) [PHENMETRAZINE]	> 30 µM	> 30 µM	> 30 µM	> 30 µM	> 30 µM	> 30 µM	> 10 µM	> 10 µM	> 10 µM
CC(C)(N)Cc1ccccc1 [PHENTERMINE]	> 30 µM	> 30 µM	> 30 µM	> 30 µM	> 30 µM	> 30 µM	> 10 µM	> 10 µM	> 10 µM
